# Data as given in PubChem BioAssay AID1963971 (Molecular Pharmacology Branch, DTP, NCI, 2024).
# Test system: 953936-095-R-J2-PDC spheroids with HUVEC/MSC, viability
# Assay: Anticancer human tumor 953936-095-R-J2-PDC patient-derived cervical squamous cell carcinoma cell line growth inhibition [PI3K]
# Details: for viability, T/C: stronger effect = lower value
# Text: Combinatorial screen of targeted agents with the PI3K inhibitors inavolisib, alpelisib, duvelisib, and copanlisib in multi-cell type tumor spheroids
# A high-throughput screen of multi-cell type tumor spheroids was designed to identify active combinations of targeted small molecules and PI3K pathway inhibitors. Complex spheroids include a stromal component modeled by human endothelial cells (HUVEC) and fibroblasts modeled by human mesenchymal stem cells (MSCs). The concentration ranges selected for each drug and investigational agent were based upon clinically achievable concentrations if the clinical Cmax of the agent was known.
# Compounds. The drugs and investigational agents: inavolisib (NSC800729), alpelisib (NSC765974), duvelisib (NSC772469), copanlisib (NSC816437), ipatasertib (NSC767898), afuresertib (NSC778305), talazoparib (NSC767125), sapanisertib (NSC764658), selumetinib (NSC741078), tovorafenib (DAY101, NSC766906), vemurafenib (NSC761431), ravoxertinib (NSC781343), sotorasib (NSC818433), MRTX1133 (NSC 836407), abemaciclib (NSC 768073), palbociclib (NSC758247), venetoclax (NSC 766270), SY5609 (NSC837396), enzalutamide (NSC755605), and darolutamide (NSC825331), were obtained from the National Cancer Institute (NCI) Developmental Therapeutics Program Chemical Repository. The FDA-approved anticancer drug set is available from the NCI Developmental Therapeutics Program. […] The stock solutions were prepared in dimethyl sulfoxide (DMSO, Sigma-Aldrich, St. Louis, MO, cat. D2650) at 800-fold the tested concentration and stored at -70 degrees C prior to their use. All drugs and investigational agents were tested over a range starting from a high concentration at or near the clinical Cmax and decreasing in half-log increments. If the clinical Cmax for an agent had not been determined, the highest concentration tested was 10 microM.
# Cell Culture. All cells were maintained in an incubator at 37 degrees C and 5% CO2 with 95% humidity. The PDC lines were cultured according to standard operating procedures established by the NCI PDMR (https://pdmr.cancer.gov/sops/default.htm). All PDCs were thawed and cultured in Matrigel-coated flasks prepared with a working solution of 1X Ham's F-12 nutrient mix, without supplementation (Invitrogen, Waltham, MA, cat. 11765054), 100 U/mL penicillin-streptomycin (Invitrogen, cat. 15140122), and 2.5% Matrigel (Corning Inc., Corning, NY, cat. 354248) for the first three passages. The 354836-022-R-J1-PDC, 475296-252-R-J1-PDC, and 997726-040-R-J2-PDC lines were cultured in 6A media, which includes advanced DMEM/F-12 (Thermo Fisher Scientific, cat. 12634028), 10 mM HEPES (Thermo Fisher Scientific, cat. 15630080), 1X GlutaMAX supplement (Thermo Fisher Scientific, cat. 35050061), 0.1 mg/mL primocin (InvivoGen, San Diego, CA, cat. ant-pm-2), 10% defined fetal bovine serum, heat inactivated (HyClone Laboratories Inc., Logan, UT, cat. SH30070.03HI), 50% L-WRN conditioned media (ATCC, cat. CRL-3276), 1.25 mM N-Acetyl-L-cysteine (Sigma-Aldrich, cat. A9165), 10 mM nicotinamide (Sigma-Aldrich, cat. N0636), 1X B-27 supplement (Thermo Fisher Scientific, cat. 17504044), 1X N-2 supplement (Thermo Fisher Scientific, cat. 17502048), and 10 microM Y-27632 dihydrochloride (Tocris Bioscience, Bristol, United Kingdom, cat. 1254). The 624824-186-R-J2-PDC line was cultured in 6C/Colon 1B media, which includes all 6A media components plus 50 ng/mL human EGF recombinant protein (Thermo Fisher Scientific, cat. PHG0311). […]
# [1] = curve of first compound, second compound 0.00316 µM
# [2] = curve of first compound, second compound 0.01 µM
# [3] = curve of first compound, second compound 0.0316 µM
# [4] = curve of first compound, second compound 0.1 µM
# [5] = curve of first compound, second compound 0.316 µM
# [6] = curve of first compound, second compound 1 µM
# [7] = second compound 0.00316 µM, first compound 0.0316 µM
# [8] = second compound 0.00316 µM, first compound 0.1 µM
# [9] = second compound 0.00316 µM, first compound 0.316 µM
# [10] = second compound 0.00316 µM, first compound 1 µM
# [11] = second compound 0.00316 µM, first compound 3.16 µM
# [12] = second compound 0.00316 µM, first compound 10 µM
# [13] = second compound 0.01 µM, first compound 0.0316 µM
# [14] = second compound 0.01 µM, first compound 0.1 µM
# [15] = second compound 0.01 µM, first compound 0.316 µM
# [16] = second compound 0.01 µM, first compound 1 µM
# [17] = second compound 0.01 µM, first compound 3.16 µM
# [18] = second compound 0.01 µM, first compound 10 µM
# [19] = second compound 0.0316 µM, first compound 0.0316 µM
# [20] = second compound 0.0316 µM, first compound 0.1 µM
# [21] = second compound 0.0316 µM, first compound 0.316 µM
# [22] = second compound 0.0316 µM, first compound 1 µM
# [23] = second compound 0.0316 µM, first compound 3.16 µM
# [24] = second compound 0.0316 µM, first compound 10 µM
# [25] = second compound 0.1 µM, first compound 0.0316 µM
# [26] = second compound 0.1 µM, first compound 0.1 µM
# [27] = second compound 0.1 µM, first compound 0.316 µM
# [28] = second compound 0.1 µM, first compound 1 µM
# [29] = second compound 0.1 µM, first compound 3.16 µM
# [30] = second compound 0.1 µM, first compound 10 µM
# [31] = second compound 0.316 µM, first compound 0.0316 µM
# [32] = second compound 0.316 µM, first compound 0.1 µM
# [33] = second compound 0.316 µM, first compound 0.316 µM
# [34] = second compound 0.316 µM, first compound 1 µM
# [35] = second compound 0.316 µM, first compound 3.16 µM
# [36] = second compound 0.316 µM, first compound 10 µM
# [37] = second compound 1 µM, first compound 0.0316 µM
# [38] = second compound 1 µM, first compound 0.1 µM
# [39] = second compound 1 µM, first compound 0.316 µM
# [40] = second compound 1 µM, first compound 1 µM
# [41] = second compound 1 µM, first compound 3.16 µM
# [42] = second compound 1 µM, first compound 10 µM
# 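Also: spheroids exposed to compounds for seven days before read-out.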
smiles,measurement,setting,value
CC1(C)CCC(Nc2ncc(C(F)(F)F)c(-c3c[nH]c4c(P(C)(C)=O)c(C#N)ccc34)n2)CN1 (stereo not given) + CC(Nc1ccc2c(c1)OCCn1cc(N3C(=O)OCC3C(F)F)nc1-2)C(N)=O,IC50,[1],< 31.6 nM
same,IC50,[2],< 31.6 nM
same,IC50,[3],< 31.6 nM
same,IC50,[4],< 31.6 nM
same,IC50,[5],< 31.6 nM
same,IC50,[6],< 31.6 nM
same,"viability, T/C",[7],48.3%
same,"viability, T/C",[8],44.8%
same,"viability, T/C",[9],49.2%
same,"viability, T/C",[10],58.6%
same,"viability, T/C",[11],45.3%
same,"viability, T/C",[12],5.82%
same,"viability, T/C",[13],49.9%
same,"viability, T/C",[14],45%
same,"viability, T/C",[15],42.8%
same,"viability, T/C",[16],51.6%
same,"viability, T/C",[17],50.3%
same,"viability, T/C",[18],5.56%
same,"viability, T/C",[19],45.9%
same,"viability, T/C",[20],42.4%
same,"viability, T/C",[21],39.2%
same,"viability, T/C",[22],40.8%
same,"viability, T/C",[23],44.9%
same,"viability, T/C",[24],4.63%
same,"viability, T/C",[25],38.5%
same,"viability, T/C",[26],32.2%
same,"viability, T/C",[27],35.2%
same,"viability, T/C",[28],32.7%
same,"viability, T/C",[29],41.1%
same,"viability, T/C",[30],3.61%
same,"viability, T/C",[31],21.5%
same,"viability, T/C",[32],22.4%
same,"viability, T/C",[33],22.4%
same,"viability, T/C",[34],22.4%
same,"viability, T/C",[35],19.8%
same,"viability, T/C",[36],1.3%
same,"viability, T/C",[37],16.5%
same,"viability, T/C",[38],16.3%
same,"viability, T/C",[39],17.7%
same,"viability, T/C",[40],16.6%
same,"viability, T/C",[41],15.7%
same,"viability, T/C",[42],0.88%
CNC(=O)c1ccc(N2C(=S)N(c3ccc(C#N)c(C(F)(F)F)c3)C(=O)C2(C)C)cc1F + CC(Nc1ccc2c(c1)OCCn1cc(N3C(=O)OCC3C(F)F)nc1-2)C(N)=O,IC50,[1],> 10000 nM
same,IC50,[2],> 10000 nM
same,IC50,[3],> 10000 nM
same,IC50,[4],4150 nM
same,IC50,[5],< 31.6 nM
same,IC50,[6],< 31.6 nM
same,"viability, T/C",[7],89.1%
same,"viability, T/C",[8],103%
same,"viability, T/C",[9],90.5%
same,"viability, T/C",[10],87.3%
same,"viability, T/C",[11],88.1%
same,"viability, T/C",[12],77.5%
same,"viability, T/C",[13],93.4%
same,"viability, T/C",[14],92.7%
same,"viability, T/C",[15],90.3%
same,"viability, T/C",[16],84.4%
same,"viability, T/C",[17],90.5%
same,"viability, T/C",[18],88.6%
same,"viability, T/C",[19],75.9%
same,"viability, T/C",[20],78.6%
same,"viability, T/C",[21],87%
same,"viability, T/C",[22],71%
same,"viability, T/C",[23],74.5%
same,"viability, T/C",[24],71.4%
same,"viability, T/C",[25],60.7%
same,"viability, T/C",[26],55.5%
same,"viability, T/C",[27],57.2%
same,"viability, T/C",[28],53.4%
same,"viability, T/C",[29],50.5%
same,"viability, T/C",[30],47.8%
same,"viability, T/C",[31],32.5%
same,"viability, T/C",[32],35.6%
same,"viability, T/C",[33],35.1%
same,"viability, T/C",[34],36.4%
same,"viability, T/C",[35],33.3%
same,"viability, T/C",[36],31.5%
same,"viability, T/C",[37],22.4%
same,"viability, T/C",[38],22.8%
same,"viability, T/C",[39],21.5%
same,"viability, T/C",[40],21.8%
same,"viability, T/C",[41],24.1%
same,"viability, T/C",[42],23%
CC(C)NCC(C(=O)N1CCN(c2ncnc3c2C(C)CC3O)CC1)c1ccc(Cl)cc1 (stereo not given),"viability, T/C",compound 0.0316 µM,92.7% [middle of 4 runs]
same,"viability, T/C",compound 0.1 µM,91.5% [middle of 4 runs]
same,"viability, T/C",compound 0.316 µM,80.4% [middle of 4 runs]
same,"viability, T/C",compound 1 µM,50.5% [middle of 4 runs]
same,"viability, T/C",compound 3.16 µM,24.3% [middle of 4 runs]
same,"viability, T/C",compound 10 µM,15.2% [middle of 4 runs]
same,IC50,curve of compound,1.02 µM [middle of 4 runs]
CC(Nc1ncnc2nc[nH]c12)c1cc2cccc(Cl)c2c(=O)n1-c1ccccc1 (stereo not given),"viability, T/C",compound 0.0316 µM,97.8% [middle of 8 runs]
same,"viability, T/C",compound 0.1 µM,93.8% [middle of 8 runs]
same,"viability, T/C",compound 0.316 µM,92.2% [middle of 8 runs]
same,"viability, T/C",compound 1 µM,85.9% [middle of 8 runs]
same,"viability, T/C",compound 3.16 µM,80% [middle of 8 runs]
same,"viability, T/C",compound 10 µM,65% [middle of 8 runs]
same,IC50,"compound alone, run of 06/13/2023",> 10000 nM
CC(Cn1ccc(-c2ccc(C#N)c(Cl)c2)n1)NC(=O)c1cc(C(C)O)[nH]n1 (stereo not given) + COc1c(OCCCN2CCOCC2)ccc2c3n(c(=NC(=O)c4cnc(N)nc4)nc12)CCN3,IC50,[1],> 10000 nM
same,IC50,[2],> 10000 nM
same,IC50,[3],< 31.6 nM
same,IC50,[4],< 31.6 nM
same,IC50,[5],< 31.6 nM
same,IC50,[6],< 31.6 nM
same,"viability, T/C",[7],80.3%
same,"viability, T/C",[8],88.3%
same,"viability, T/C",[9],84.1%
same,"viability, T/C",[10],101%
same,"viability, T/C",[11],90.7%
same,"viability, T/C",[12],89.2%
same,"viability, T/C",[13],68.8%
same,"viability, T/C",[14],71.6%
same,"viability, T/C",[15],76.3%
same,"viability, T/C",[16],71.1%
same,"viability, T/C",[17],78.9%
same,"viability, T/C",[18],70.2%
same,"viability, T/C",[19],43.5%
same,"viability, T/C",[20],40.9%
same,"viability, T/C",[21],42.6%
same,"viability, T/C",[22],39.8%
same,"viability, T/C",[23],46.2%
same,"viability, T/C",[24],41.1%
same,"viability, T/C",[25],19.4%
same,"viability, T/C",[26],19.4%
same,"viability, T/C",[27],20.7%
same,"viability, T/C",[28],20.3%
same,"viability, T/C",[29],21.8%
same,"viability, T/C",[30],19.8%
same,"viability, T/C",[31],7.44%
same,"viability, T/C",[32],6.25%
same,"viability, T/C",[33],7.53%
same,"viability, T/C",[34],6.55%
same,"viability, T/C",[35],7.13%
same,"viability, T/C",[36],8.7%
same,"viability, T/C",[37],1.6%
same,"viability, T/C",[38],1.39%
same,"viability, T/C",[39],2%
same,"viability, T/C",[40],1.92%
same,"viability, T/C",[41],2.08%
same,"viability, T/C",[42],1.97%
